Experimental findings from ChEMBL document CHEMBL1201862, “PubChem BioAssay data set” (2004) are described below.

Each structure is given as a SMILES string. The source made the active and inactive calls. Cut-off read from the data, not from the text of the source, for most assays here: actives have a measured EC50 and inactives only a lower limit. Where only a bound is given, the exact number is not on record here.

The target of test [1] is T1, High affinity choline transporter 1 (Homo sapiens, UniProt Q9GZV3).
T1 sequence (Q9GZV3 whole entry): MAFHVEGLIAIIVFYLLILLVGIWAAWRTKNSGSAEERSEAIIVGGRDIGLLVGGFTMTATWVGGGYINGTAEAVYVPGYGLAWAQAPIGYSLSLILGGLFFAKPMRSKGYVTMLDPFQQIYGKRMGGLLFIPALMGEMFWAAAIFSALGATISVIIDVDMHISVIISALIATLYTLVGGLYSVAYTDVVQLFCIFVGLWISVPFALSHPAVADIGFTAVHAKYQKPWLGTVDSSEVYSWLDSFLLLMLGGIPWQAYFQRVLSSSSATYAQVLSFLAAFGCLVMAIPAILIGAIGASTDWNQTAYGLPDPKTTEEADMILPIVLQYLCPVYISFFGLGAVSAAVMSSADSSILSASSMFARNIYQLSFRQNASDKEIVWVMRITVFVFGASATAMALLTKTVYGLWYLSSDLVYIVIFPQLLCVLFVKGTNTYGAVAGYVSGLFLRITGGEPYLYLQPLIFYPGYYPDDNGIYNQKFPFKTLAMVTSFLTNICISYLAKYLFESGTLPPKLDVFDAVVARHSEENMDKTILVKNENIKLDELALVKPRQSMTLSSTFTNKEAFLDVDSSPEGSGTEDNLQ
The test can be described thus: CHT inhibitors, dose response, cell-based, 5-point CRC, membrane potential dye (AID 504840). The class given is functional.

Test [2] in a line: Luminescence Cell-Based Dose Confirmation HTS to Identify Activators of 5'UTR Stem-Loop Driven Alpha-Synuclein mRNA Translation in H4 Neuroglioblastoma Cells. [Related pubchem assays: 1829 (Project Summary), 1814 (Primary HTS)]. The class given is functional.
Test [3] can be described thus: Luminescence Cell-Based Dose Response HTS to Identify Activators of Luciferase Translation or Activity in H4 […] Cells. [Related pubchem assays: 1829 (Project Summary), 1814 (Primary HTS)]. The class given is functional.
The next test relates to H4. The test can be described thus: Luminescence Cell-Based Dose Response HTS to Identify Activators of 5'UTR Stem-Loop Driven Prion Protein mRNA Translation in H4 Neuroglioblastoma Cells. [Related pubchem assays: 1829 (Project Summary), 1814 (Primary HTS)]. It counts as functional. To be noted: Homo sapiens.
Test [4] addresses T2, Heat shock factor protein 1 (Mus musculus, UniProt P38532).
T2 sequence (P38532 whole entry): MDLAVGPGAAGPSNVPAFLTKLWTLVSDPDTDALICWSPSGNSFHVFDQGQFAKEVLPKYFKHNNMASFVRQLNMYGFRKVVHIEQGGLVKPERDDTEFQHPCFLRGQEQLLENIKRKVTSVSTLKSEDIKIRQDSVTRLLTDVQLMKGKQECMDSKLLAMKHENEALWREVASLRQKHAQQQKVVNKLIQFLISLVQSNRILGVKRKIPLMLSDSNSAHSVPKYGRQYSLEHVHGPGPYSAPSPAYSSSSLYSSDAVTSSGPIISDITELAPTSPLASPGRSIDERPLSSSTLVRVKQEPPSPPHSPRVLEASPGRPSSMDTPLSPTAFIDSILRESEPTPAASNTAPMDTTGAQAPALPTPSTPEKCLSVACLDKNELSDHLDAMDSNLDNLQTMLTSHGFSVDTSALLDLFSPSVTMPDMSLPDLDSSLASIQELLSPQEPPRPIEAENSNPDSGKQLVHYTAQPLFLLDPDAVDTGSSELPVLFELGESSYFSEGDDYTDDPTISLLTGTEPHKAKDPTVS
As to the kind of experiment: HSF1 potentiators in luciferase reporter cells, confirmation, cell-based, NIH3T3, luminescence, dose retest (AID 435004).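 Note: stress induced by proteasome inhibitor MG132 added 30 min after compound; luciferase reporter driven by HSF1 response element in NIH3T3 cells; actives raise luminescence as potentiators of the MG132 stress response.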 The class given is functional. (Reporter assays use an easily measured gene product as a stand-in for the process of interest.)

The target in another test is T3, Streptokinase A (Streptococcus pyogenes serotype M1, UniProt P10520).
T3 sequence (P10520 whole entry): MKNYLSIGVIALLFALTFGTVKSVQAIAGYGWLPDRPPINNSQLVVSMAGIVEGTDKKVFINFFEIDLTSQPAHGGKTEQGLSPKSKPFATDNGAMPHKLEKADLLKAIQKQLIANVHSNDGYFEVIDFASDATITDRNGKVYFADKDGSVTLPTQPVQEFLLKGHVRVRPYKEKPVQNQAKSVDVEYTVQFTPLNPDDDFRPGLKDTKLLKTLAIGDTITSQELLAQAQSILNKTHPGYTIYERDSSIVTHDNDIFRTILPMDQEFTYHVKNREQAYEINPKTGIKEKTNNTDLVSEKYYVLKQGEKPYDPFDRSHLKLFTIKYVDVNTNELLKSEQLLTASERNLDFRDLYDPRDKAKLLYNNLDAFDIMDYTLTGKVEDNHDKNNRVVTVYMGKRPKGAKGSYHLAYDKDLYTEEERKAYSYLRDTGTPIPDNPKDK
As to the kind of experiment: S. pyogenes streptokinase expression inhibitors, potency, dose response, plasminogen activation absorbance, OD405 (AID 1914).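 Note: secreted streptokinase activity via plasminogen activation per viability signal from cell pellet.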 The class given is functional, Streptococcus pyogenes M1 GAS.

Test [5] relates to Streptococcus sp. 'group A'. As to the kind of experiment: growth inhibition of control SK(-) GAS strain, dose response, counter-screen for streptokinase expression inhibitor project, luminescence, kanamycin, BacTiterGlo, confirmation (AID 1900). It counts as functional, organism-based. Background: The purpose of a counterscreen is to sort out artefacts and off-target activity.

In a further test the target is T4, Protein RecA (Mycobacterium tuberculosis, UniProt P9WHJ3).
T4 sequence (P9WHJ3 whole entry): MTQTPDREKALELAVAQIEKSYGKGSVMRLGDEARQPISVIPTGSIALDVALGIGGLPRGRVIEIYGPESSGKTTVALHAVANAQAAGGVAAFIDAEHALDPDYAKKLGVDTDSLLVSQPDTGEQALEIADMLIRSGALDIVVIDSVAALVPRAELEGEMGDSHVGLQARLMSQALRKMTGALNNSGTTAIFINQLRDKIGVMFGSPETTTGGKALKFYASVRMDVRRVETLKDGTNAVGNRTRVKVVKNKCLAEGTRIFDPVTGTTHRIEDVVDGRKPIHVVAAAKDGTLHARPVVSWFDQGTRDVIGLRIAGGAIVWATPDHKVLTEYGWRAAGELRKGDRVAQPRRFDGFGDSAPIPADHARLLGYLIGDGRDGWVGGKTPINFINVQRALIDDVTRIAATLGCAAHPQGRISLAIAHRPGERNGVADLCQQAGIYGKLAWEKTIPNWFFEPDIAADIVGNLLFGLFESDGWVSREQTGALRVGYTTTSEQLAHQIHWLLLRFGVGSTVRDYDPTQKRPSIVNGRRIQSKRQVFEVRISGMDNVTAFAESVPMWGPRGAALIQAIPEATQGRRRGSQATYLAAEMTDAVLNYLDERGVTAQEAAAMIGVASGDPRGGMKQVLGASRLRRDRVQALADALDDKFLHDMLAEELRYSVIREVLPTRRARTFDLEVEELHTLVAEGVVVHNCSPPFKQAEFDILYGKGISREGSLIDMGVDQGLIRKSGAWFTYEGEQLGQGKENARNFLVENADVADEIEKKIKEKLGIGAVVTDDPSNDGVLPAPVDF
As to the kind of experiment: Fluorescence Cell-Free Homogeneous Dose Retest to Identify Inhibitors of RecA-Intein Splicing Activity. [Related pubchem assays (depositor defined):AID2097, AID2223, AID489010, AID492950]. The class given is functional.

The next test relates to Streptococcus. As to the kind of experiment: Group A Streptococcus viability loss, dose response, counter-screen for streptokinase expression inhibitor project, luminescence, BacTiterGlo (AID 1915).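 Note: potency for reduction of bacterial viability or growth.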 The class given is functional, organism-based.
For test [6], the target named is T5, Replicative DNA helicase DnaB (Mycobacterium tuberculosis, UniProt P9WMR3).
T5 sequence (P9WMR3 whole entry): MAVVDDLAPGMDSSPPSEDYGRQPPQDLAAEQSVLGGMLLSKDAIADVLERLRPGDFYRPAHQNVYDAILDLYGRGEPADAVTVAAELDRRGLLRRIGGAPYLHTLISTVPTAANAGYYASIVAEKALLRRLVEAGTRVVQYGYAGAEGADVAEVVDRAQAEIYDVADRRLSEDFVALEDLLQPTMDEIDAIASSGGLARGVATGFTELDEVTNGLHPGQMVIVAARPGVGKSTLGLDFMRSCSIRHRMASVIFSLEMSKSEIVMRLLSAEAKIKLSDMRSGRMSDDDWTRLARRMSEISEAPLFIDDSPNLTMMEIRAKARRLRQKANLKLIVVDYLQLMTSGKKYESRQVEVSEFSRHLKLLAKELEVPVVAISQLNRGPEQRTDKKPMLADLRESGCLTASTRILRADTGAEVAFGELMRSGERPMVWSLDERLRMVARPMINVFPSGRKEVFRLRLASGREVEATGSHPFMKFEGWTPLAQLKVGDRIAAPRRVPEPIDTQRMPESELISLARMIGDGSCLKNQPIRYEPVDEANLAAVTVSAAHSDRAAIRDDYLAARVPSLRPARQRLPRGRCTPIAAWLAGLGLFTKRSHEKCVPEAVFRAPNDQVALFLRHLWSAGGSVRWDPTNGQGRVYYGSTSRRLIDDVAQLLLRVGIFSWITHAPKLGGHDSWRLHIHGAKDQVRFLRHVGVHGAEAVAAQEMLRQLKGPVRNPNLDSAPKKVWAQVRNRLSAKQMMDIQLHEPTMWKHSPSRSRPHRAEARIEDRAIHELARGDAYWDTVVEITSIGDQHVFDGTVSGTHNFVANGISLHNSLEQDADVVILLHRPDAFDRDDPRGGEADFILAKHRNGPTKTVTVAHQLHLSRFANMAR
The test can be described thus: DnaB intein splicing inhibitors, dose response, biochemical, cell-free fluorescence (AID 449749). The class given is functional.

What is called IC50 is the point on the concentration scale where inhibition reaches its midpoint. Consider `CCN1CCCC1CNC(=O)c1ccc2c(c1)N(Cc1ccccc1F)C(=O)c1ccccc1S2(=O)=O` (centres undefined), for which, in [1], the 50% inhibitory concentration (IC50) is 11.2 µM (active).
As usually defined, the EC50 is the concentration that produces a half-maximal response. Regarding `COc1ccc2oc(=O)c(-c3nnc(NCc4ccco4)s3)cc2c1`, the EC50 in test [2] is 23.1 µM (active); in [3] it was 78.7 µM (active); in the test on H4 it was 1.91 µM (active).
For `CSc1ccc(/C=N\Nc2nncn2N)cc1`, the EC50 in test [4] was 141 µM (active).
In the case of `COc1ccc(NC(=O)COc2cccc3c2CCN(Cc2cccnc2)C3=O)c(OC)c1`, the EC50 in test [4] was > 260 µM (inactive).
Turning to `CC(CC#CCN1CCOCC1)OCCC#N` (centres undefined), the EC50 in [4] was > 260 µM (inactive).
Turning to `Cc1cccc(C(=O)Nc2cccc(OCC(=O)O)c2)c1`, the IC50 in test [1] is 7.59 µM (active).
On the same count and under the same terms, with `CC(C)(C)C(=O)Nc1scc(-c2ccc(-c3ccccc3)cc2)c1C(=O)O` the figure was 14.5 µM (active).
Regarding `Cc1n[nH]c(O)c1/C=N/Cc1cccs1`, the EC50 in test [4] is > 260 µM (inactive).
Turning to `O=C1C=C(c2ccccc2)CC(/C=C/c2ccccc2)C1` (centres undefined), in test [4], the EC50 was > 260 µM (inactive).
Consider `O=C(Cc1c(O)c2ccccc2[nH]c1=O)NCc1ccccc1`, for which the EC50 in [4] was > 260 µM (inactive).
On to `COc1ccccc1C(=O)Nc1nnc(C)s1`, for which the EC50 is 0.108 µM (active) in [2], 4.92 µM (active) in test [3] and 26.3 µM (active) with H4.
`Cc1ccccc1Nc1c(-c2ccc(N3CCOCC3)cc2)nc2cnccn12`: the EC50 is 15 µM (active) in test [2], 19.2 µM (active) in [3] and 16.6 µM (active) with H4.
For `Cc1cc(-c2nnc(-c3cccc(Cl)c3)o2)no1`, in that order: 0.132 µM (active), 0.318 µM (active) and 119 µM (active).
For `CC(C)Cn1c(=O)c2c(nc3n2CCCN3CCc2ccccc2)n(C)c1=O`, the IC50 in test [1] is 13.2 µM (active).
On to `CCCOc1ccc(-c2c(=O)n(O)c3ccccc3[n+]2[O-])cc1`, for which the EC50 in test [2] is 10.1 µM (active); in test [3], 11.6 µM (active); with H4, 97.6 µM (active).
In the case of `Cc1cccc(N2CCN(C(=O)c3ccc(CNc4c(N5CCC(C)CC5)c(=O)c4=O)cc3)CC2C)c1` (centres undefined), the IC50 in [1] is 14.5 µM (active).
For the compound `CN1C(=O)S/C(=C\c2ccc(-n3cncn3)cc2)C1=O`, the EC50 in test [2] is 59.6 µM (active); in test [3], 32.4 µM (active); with H4 it was > 120 µM (not active).
By AC50 is commonly meant the concentration giving half of the maximal activity seen. On to `CCCCCC(=O)Cc1cc(O)cc2c1C(=O)Oc1cc(O)c(C(=O)O)c(CCCCC)c1O2` [PHYSODIC ACID], for which the EC50 at Streptokinase A is 15.9 µM (active); in test [5], 2.36 µM (active); on Protein RecA, 3.23 µM (active); in the test with Streptococcus, > 150 µM (not active). Besides, in test [6], the AC50 was 2.05 µM (active).
As for `C[C@@H]1OC(Nc2ccc(N=Nc3ccccc3)cc2)[C@H](O)[C@H](O)[C@H]1O` (some centres undefined), the half-maximal effective concentration (EC50) was 16.9 µM (active) in test [2], 54.8 µM (active) in [3] and 11.1 µM (active) in the test with H4.
For `COC(=O)c1nnn(CC(=O)NC(=O)Nc2ccc(F)cc2)c1C(=O)OC`, the EC50 in [4] was > 260 µM (inactive).
Same read-out and setting: as for `CCC(C)(C)n1nnnc1C(c1cc2cc(C)cc(C)c2nc1O)N1CCN(Cc2ccc3c(c2)OCO3)CC1` (centres undefined), the figure is > 260 µM (inactive).
With `Cc1cc(C)c(Cn2c3ccccc3c3cnn(CC(=O)NCCN4CCOCC4)c(=O)c32)c(C)c1`, the concentration for half-maximal inhibition (IC50) in [1] was 15.8 µM (active).
`O=S(=O)(Nc1ccc(-c2nnc3n2CCCCC3)cc1)c1ccc2nc(O)oc2c1`: the EC50 in [4] is > 260 µM (inactive).
With `Cc1cccc2cc3c(nc12)S/C(=N/CC1CCCO1)N(Cc1ccco1)C3` (centres undefined), in [4], the EC50 is 44.6 µM (active).
As to `CCOc1ccc(NC(c2ccccn2)c2oc(CO)cc(=O)c2O)cc1` (centres undefined), the EC50 in test [3] was 0.175 µM (active); in the test with H4 it was 22.2 µM (active).
